# Experimental data reported in publication PMC12064818, “A general assay platform to study protein pharmacology using ligand-dependent structural dynamics” (Nature Communications, 2025).
# Biological target: T1, FLuc-C-HiBiT (Photinus pyralis, UniProt P08659)
# T1 construct: firefly luciferase with C-terminal HiBiT tag, E. coli expressed
# Assay: biochemical
# Settings: enzyme activity, 10 uM ATP; read-out: IC50 or SDR50 (mM) / FLuc E
# T1 sequence (P08659 whole entry, looked up): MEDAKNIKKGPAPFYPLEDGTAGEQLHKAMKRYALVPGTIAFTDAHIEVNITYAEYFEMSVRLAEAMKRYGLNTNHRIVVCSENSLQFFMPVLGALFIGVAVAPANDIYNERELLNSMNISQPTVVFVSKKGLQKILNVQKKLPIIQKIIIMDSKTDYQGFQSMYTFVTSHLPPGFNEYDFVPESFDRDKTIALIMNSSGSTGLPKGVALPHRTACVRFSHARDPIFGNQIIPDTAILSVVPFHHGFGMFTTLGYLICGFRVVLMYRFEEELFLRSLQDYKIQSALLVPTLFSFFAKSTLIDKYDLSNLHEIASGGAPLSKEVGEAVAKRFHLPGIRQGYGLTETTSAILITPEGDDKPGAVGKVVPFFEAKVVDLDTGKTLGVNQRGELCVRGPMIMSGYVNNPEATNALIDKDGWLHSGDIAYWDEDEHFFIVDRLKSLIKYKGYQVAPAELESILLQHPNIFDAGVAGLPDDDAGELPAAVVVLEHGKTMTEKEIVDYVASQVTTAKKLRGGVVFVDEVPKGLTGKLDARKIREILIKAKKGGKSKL
row,Compound,IC50
1,CC(C)(C)CC(=O)N1C[C@@H]2C[C@H](C1)c1ccc(NC(=O)Nc3cccc(F)c3)c(=O)n1C2 [NCGC00395227-01],> 0.03 mM
2,O=C(Nc1ccc(Cl)cc1)Nc1ccc2n(c1=O)C[C@H]1C[C@@H]2CN(C(=O)c2ccc3ccccc3c2)C1 [NCGC00395236-01],0.0124 mM
3,COc1ccc(-c2noc([C@@H]3C[C@H](NCc4ccccn4)CN3C)n2)cc1 [NCGC00395774-01],0.0202 mM
4,CC(C)(CC(=O)O)CC(=O)N1Cc2nc[nH]c2C[C@H]1c1nc(Cc2ccccc2)no1 [NCGC00396501-01],> 0.03 mM
5,Cc1ccccc1CN1CC[C@H](c2nc3cc(F)ccc3[nH]2)C1 [NCGC00396601-01],0.0255 mM
6,Cn1ccnc1CN1C(=O)CO[C@H](c2ccc(NC(=O)Nc3ccccc3)cc2)[C@H]1CO [NCGC00396650-01],0.014 mM
7,CC(C)(C)c1ccc(C(=O)Nc2ccc([C@H]3OCC(=O)N[C@@H]3CO)cc2)cc1 [NCGC00396656-01],0.0161 mM
8,Cc1ccc2oc([C@H]3CCN(Cc4cccs4)C3)nc2c1 [NCGC00397825-01],0.018 mM
9,CC(=O)N[C@@H]1C=C[C@@H](c2c(C)nn(-c3ccc(C(C)(C)C)cc3)c2C)C1 [NCGC00397882-01],0.018 mM
10,O=C([C@@H]1C[C@@H](O)[C@H](O)[C@@H]2NC(=S)N(c3ccc4c(c3)OCO4)[C@@H]21)N1CCOCC1 [NCGC00397934-01],0.0143 mM
11,Cc1ccc2[nH]c([C@H]3CCN(Cc4cccs4)C3)nc2c1 [NCGC00397946-01],0.0202 mM
12,CCNC(=O)N[C@@H]1C=C[C@@H](c2c(C)nn(-c3ccc(C(F)(F)F)cc3)c2C)C1 [NCGC00397974-01],0.0143 mM
13,COc1ccc(C(=O)Nc2ccc3n(c2=O)C[C@H]2C[C@@H]3CN(C(=O)CCCC(=O)O)C2)cc1 [NCGC00397987-01],0.0157 mM
14,O=C(Nc1ccccc1)Nc1ccc2n(c1=O)C[C@H]1C[C@@H]2CN(C(=O)c2ccccc2)C1 [NCGC00397999-01],0.018 mM
15,O=C(Nc1cccc(F)c1)Nc1ccc2n(c1=O)C[C@H]1C[C@@H]2CN(C(=O)c2ccc(F)cc2)C1 [NCGC00398007-01],0.007 mM
16,C[C@H](C(=O)NCCN1CCOCC1)C1CC[C@@]2(C)Cc3sc(CSc4ccccc4)nc3[C@@H](C)[C@@H]2[C@H]1O (stereo partly shown) [NCGC00398276-01],0.0124 mM
17,COc1ccc(-c2ccc3c(c2)C(=O)N2CC[C@H](NC(=O)c4cccc(F)c4)[C@H]2C(=O)N3)cc1 [NCGC00399389-01],0.00989 mM
18,CC(C)c1ccc(NC(=O)O[C@@H]2CO[C@H]3[C@@H]2OC[C@@H]3N[S+](=O)([O-])c2cccs2)cc1 [NCGC00399549-01],0.00881 mM
19,CCNC(=O)N[C@@H]1C=C[C@@H](c2c(C)nn(-c3ccc(C(C)C)cc3)c2C)C1 [NCGC00399948-01],0.00286 mM
20,Cc1nn(-c2ccc(C(C)C)cc2)c(C)c1[C@@H]1C=C[C@@H](NC(=O)NC(C)C)C1 [NCGC00399949-01],0.018 mM
21,Cc1ccc(-n2nc(C)c([C@@H]3C=C[C@@H](NC(=O)NC(C)C)C3)c2C)cc1Cl [NCGC00399958-01],0.0143 mM
22,Cc1ccc(-n2nc(C)c([C@@H]3C=C[C@@H](NC(=O)NCc4ccccc4)C3)c2C)cc1Cl [NCGC00399961-01],0.018 mM
23,Cc1ccc(-n2nc(C)c([C@@H]3C=C[C@@H](NC(=O)Nc4ccc(Cl)cc4)C3)c2C)cc1Cl [NCGC00400070-01],0.00989 mM
24,Cc1nn(-c2ccc(C(C)(C)C)cc2)c(C)c1[C@@H]1C=C[C@@H](NC(=O)CCCC(=O)O)C1 [NCGC00400254-01],0.0202 mM
25,Cc1nn(-c2ccc(C(C)(C)C)cc2)c(C)c1[C@@H]1C=C[C@@H](NC(=O)COCC(=O)O)C1 [NCGC00400262-01],0.0202 mM
26,COc1ccc(-n2nc(C)c([C@@H]3C=C[C@@H](NC(=O)Nc4cccc(C#N)c4)C3)c2C)cc1 [NCGC00400336-01],0.018 mM

row,Compound,IC50
1,CC(=O)N[C@@H]1C=C[C@@H](c2c(C)nn(-c3ccc(C(F)(F)F)cc3)c2C)C1 [NCGC00400353-01],0.0161 mM
2,COc1ccc(CN2C[C@H](O)C[C@H]2c2nc(-c3ccc(OC)cc3)no2)cc1 [NCGC00400669-01],0.0143 mM
3,COc1ccc(-c2noc([C@@H]3C[C@@H](O)CN3Cc3cccs3)n2)cc1 [NCGC00400674-01],0.0202 mM
4,COc1ccc(-c2noc([C@@H]3C[C@@H](O)CN3Cc3cc4ccccc4o3)n2)cc1 [NCGC00400688-01],0.0161 mM
5,CN1C[C@@H](N[S+](=O)([O-])c2ccc(C#N)cc2)C[C@H]1c1nc(-c2ccc(Cl)cc2)no1 [NCGC00400957-01],0.0111 mM
6,CSCC(=O)Nc1nc2c(s1)C[C@]1(C)CC[C@@H]3[C@H](OC(=O)[C@H]3C)[C@H]1[C@@H]2C [NCGC00401416-01],0.00453 mM
7,C[C@H](C(=O)N1CCCC1)C1CC[C@@]2(C)Cc3sc(-c4ccccc4)nc3[C@@H](C)[C@@H]2[C@H]1O (stereo partly shown) [NCGC00401417-01],0.00197 mM
8,C[C@@H]1C(=O)O[C@H]2[C@H]1CC[C@@]1(C)Cc3sc(NC(=O)c4ccncc4)nc3[C@@H](C)[C@H]21 [NCGC00401418-01],0.00057 mM
9,CN(Cc1ccccc1)C(=O)[C@H]1C[C@@H](O)[C@H](O)[C@@H]2N=C(Nc3ccc(-n4cccn4)cc3)S[C@@H]21 [NCGC00401585-01],0.0111 mM
10,Cc1nn(-c2cccc(Br)c2)c(C)c1[C@@H]1C=C[C@@H](NC(=O)CC(C)(C)CC(=O)O)C1 [NCGC00401591-01],> 0.03 mM
11,COc1ccc(C(=O)N[C@@H]2CN(C(=O)Nc3ccc(OC(F)(F)F)cc3)CCC[C@H]2O)cc1 [NCGC00401608-01],0.0111 mM
12,Cc1ccc(-n2nc(C)c([C@H]3C=C[C@@H](OC(=O)Nc4cccc(C(F)(F)F)c4)C3)c2C)cc1Cl [NCGC00401611-01],> 0.03 mM
13,Cc1ccc(-n2nc(C)c([C@@H]3C=C[C@@H](NC(=O)COCC(=O)O)C3)c2C)cc1Cl [NCGC00401616-01],> 0.03 mM
14,Cc1nn(-c2ccc(C(C)C)cc2)c(C)c1[C@@H]1C=C[C@@H](NC(=O)COCC(=O)O)C1 [NCGC00401626-01],0.0202 mM
15,Cc1ccc(-c2noc([C@@H]3Cc4[nH]cnc4CN3C(=O)Nc3cccc(F)c3)n2)cc1 [NCGC00401633-01],0.0202 mM
16,COc1ccc(-c2noc([C@@H]3Cc4[nH]cnc4CN3C(=O)Nc3ccc(Cl)cc3)n2)cc1 [NCGC00401634-01],> 0.03 mM
17,Cc1cc(-c2nc3cc(F)ccc3s2)ccc1N [NCGC00402259-04],0.00111 mM
18,O=C1Cc2c(-c3cccc4ccccc34)n[nH]c2CN1CCOc1ccccc1 [NCGC00409142-01],0.018 mM
19,COc1cccc(-c2csc(CN3CCCC(C)(NC(C)=O)C3)c2)c1 (stereo not shown) [NCGC00410342-01],0.0202 mM
20,COc1ccc(-c2ccc(CN3CC(C)(NC(C)=O)C3)s2)cn1 [NCGC00410343-01],0.0202 mM
21,CC1(NC(=O)C2CC2)CN(Cc2nc(-c3cccc(F)c3)cs2)C1 [NCGC00410350-01],0.0202 mM
22,CC(=O)NC1(C)CN(Cc2ccc(-c3ccc(Oc4ccccc4)cc3)s2)C1 [NCGC00410351-01],0.0255 mM
23,CC(=O)NC1(C)CCN(Cc2cccc(-c3ccc4ccccc4c3)c2)C1 (stereo not shown) [NCGC00410355-01],0.0114 mM
24,CC1(NC(=O)C2CC2)CN(Cc2nc(-c3ccccc3)cs2)C1 [NCGC00410376-01],0.0202 mM
25,CC1(NC(=O)C2CC2)CN(Cc2nc(-c3ccccc3OCc3ccccc3)cs2)C1 [NCGC00410379-01],0.0161 mM
26,CC(=O)NC1(C)CCN(Cc2ccc(-c3ccc4c(ccn4C)c3)cc2)C1 (stereo not shown) [NCGC00410408-01],0.00718 mM
